Measurements from patent US20040024293A1, “Methods and systems for analyzing complex biological systems” (priority 2001, published 2004).

What was measured:
[1] = tested on: Saccharomyces cerevisiae wild type strain BY4743; assay: Metabolite analysis (GC-MS, LC-MS) of yeast cells treated with antifungal drugs (AF1); format: cell-based; conditions: for Fold Change of NacetylDglucosamine: metabolite NacetylDglucosamine; for Fold Change of phosphoenolpyruvate: metabolite phosphoenolpyruvate; for Fold Change of thymine: metabolite thymine; for Fold Change of urocanic acid: metabolite urocanic acid; for Fold Change of zeatin: metabolite zeatin
[2] = tested on: Saccharomyces cerevisiae wild type strain BY4743; assay: Combined gene expression and metabolite data mapped to KEGG reactions and pathways (AF1); format: cell-based; conditions: yeast
Source text: In AF1, two different technologies were utilized: gene expression analysis (for examination of mRNA expression) and metabolite analysis. […] As noted previously, existing metabolic databases may be helpful in practicing the methods and systems of the present invention, but many databases include limitations that make their use in data analysis and pathway mapping less than straightforward. […] This caveat to KEGG makes it difficult to pinpoint the correct pathway when attempting to link a gene to a specific pathway. […] The pathway score indicates how meaningful the mapping is, or how likely it is to be correctly indicative of the pathway involved in the perturbation under examination. The method provides a pathway score based on perturbation levels of genes. and/or compounds and the information content of each gene and/or compound in the pathway, i.e., a pathway score indicates the extent to which other pathways are mapped to a gene/compound. For example, imagine that two genes are perturbed in a particular experiment. One gene maps to only one pathway, giving a high degree of probability that the perturbed pathway is the one identified in the mapping. The second gene maps to three pathways. In the later example, there is only one-third the probability that the pathway identified in the mapping is the one perturbed. The present invention provides a method for calculating the pathway scores, so that more weight is given to a score of a gene or compound that maps to only one pathway than to a score of a gene or compound that maps to multiple pathways. […] Where n=the total number of genes in the pathway; ipath—count=the number of pathways containing a gene; and j=the number of genes in the pathway that are perturbed. Another factor to be considered when weighting a pathway score is the degree of perturbation. Degree of perturbation can be calculated, for example, based on a number of standard deviations from a norm, and included in an equation such as the one shown above, so that not only the number of pathways is taken into account, but also accounts for the amount of gene transcript or compound present as compared to a control. Compounds were also linked to pathways using the KEGG database. KEGG links 676 compounds measured in AF1 to a total of 92 pathways. Of the 676 compounds under consideration, 77 were detected in the AF1 samples. […] The multiple mapping feature of KEGG makes it difficult to pinpoint the correct pathway when trying to link a compound to a specific pathway. […] A pathway score calculation is applied to the compounds to account for both information content (number of pathways a compound maps to) and perturbation level. […]

Arabidopsis thaliana = assay: Phenotypic profiling of Arabidopsis sprayed with unknown and commercial herbicides (MOA1); format: in vivo
[3] = tested on: Saccharomyces cerevisiae wild type strain BY4743; assay: Gene expression analysis of yeast cells treated with antifungal drugs (AF1); format: cell-based; conditions: p < 0.05; KEGG pathway mapping of gene expression data
Protocol: Saccharomyces cerevisiae wild type strain BY4743 was purchased from American Type Culture Center (ATCC, Manassas, Va.). The yeast strain was grown in YPD or SD media. […] The cultures started from fresh single colonies were grown in 1.0 ml YPD overnight at 30° C. […] The OD600 was adjusted to 1.0 with YPD media, then 2.0 ml of each was inoculated into three 250 ml flasks, each containing 50 ml of SD media. […] The cells were kept growing for another two hours, then collected by centrifugation at 4000 rpm for 5 minutes at 4° C. Pellets were washed once with ice-cold water, then were lyophilized overnight at 4° C. […] RNA quality was determined using the Bioanalyzer 2100 and the RNA 6000 assay (Agilent Technologies, Palo Alto, Calif.) according to manufacturer's instructions. RNA concentrations were determined spectrophotometrically by measuring the absorption at 260 nm in an Ultrospec 2000 (Pharmacia Biotech, Piscataway, N.J.). […] Labeled cRNAs were evaluated using the RNA 6000 assay on the Agilent Bioanalyzer 2100. Labeled cRNA concentrations were determined spectrophotometrically by measuring the absorption at 260 nm in an Ultrospec 2000 (Pharmacia Biotech, Piscataway, N.J.). […] Each feature was determined from an array's associated pattern file and a detection algorithm. […] Data was evaluated after combining results from fluor reversal replicate hybridizations. […]

Structure (SMILES): CC[C@@H]([C@H](C)O)n1ncn(-c2ccc(N3CCN(c4ccc(OC[C@@H]5CO[C@@](Cn6cncn6)(c6ccc(F)cc6F)C5)cc4)CC3)cc2)c1=O [Posaconazole]
- Fold Change: aspartic acid ([1]; GC): −0.071
- Fold Change: campesterol ([1]; GC): 0
- Fold Change: desmosterol ([1]; GC): 0
- Fold Change: iso citric acid ([1]; GC): 0.4
- Fold Change of NacetylDglucosamine ([1]; platform nLC, p-Value 1): 0
- Fold Change of NacetylDglucosamine ([1]; platform pLC, p-Value 1): 0
- Fold Change of NacetylLglutamate ([1]; metabolite NacetylLglutamate, platform pLC, p-Value 1): 0
- Fold Change of NacetylLornithine ([1]; metabolite NacetylLornithine, platform nLC, p-Value 1): 0
- Fold Change of niacinamide ([1]; metabolite niacinamide, platform pLC, p-Value 1): 0
- Fold Change of nopaline ([1]; metabolite nopaline, platform pLC, p-Value 1): 0
- Fold Change of ornithine3 ([1]; metabolite ornithine3, platform GC, p-Value 0.965157424): 0.041
- Fold Change of orotic acid ([1]; metabolite orotic acid, platform nLC, p-Value 1): 0
- Fold Change of phenylpyruvic acid ([1]; metabolite phenylpyruvic acid, platform nLC, p-Value 1): 0
- Fold Change of phosphoenolpyruvate ([1]; platform nLC, p-Value 1): 0
- Fold Change of phosphoenolpyruvate ([1]; platform pLC, p-Value 1): 0
- Fold Change of pinitol ([1]; metabolite pinitol, platform nLC, p-Value 1): 0
- Fold Change of porphobilinogen ([1]; metabolite porphobilinogen, platform nLC, p-Value 1): 0
- Fold Change of progesterone ([1]; metabolite progesterone, platform pLC, p-Value 1): 0
- Fold Change of retinoic acid ([1]; metabolite retinoic acid, platform nLC, p-Value 1): 0
- Fold Change of riboflavin ([1]; metabolite riboflavin, platform pLC, p-Value 1): 0
- Fold Change of salicylic/HObenzoic ([1]; metabolite salicylic/HObenzoic, platform nLC, p-Value 1): 0
- Fold Change of shikimic acid ([1]; metabolite shikimic acid, platform nLC, p-Value 1): 0
- Fold Change of sinapinic acid ([1]; metabolite sinapinic acid, platform nLC, p-Value 1): 0
- Fold Change of sugar-phosphate ([1]; metabolite sugar-phosphate, platform pLC, p-Value 1): 0
- Fold Change of thiamine ([1]; metabolite thiamine, platform pLC, p-Value 1): 0
- Fold Change of thymine ([1]; platform nLC, p-Value 1): 0
- Fold Change of thymine ([1]; platform pLC, p-Value 1): 0
- Fold Change of tryptophan ([1]; metabolite tryptophan, platform pLC, p-Value 1): 0
- Fold Change of uric acid ([1]; metabolite uric acid, platform pLC, p-Value 1): 0
- Fold Change of urocanic acid ([1]; platform nLC, p-Value 1): 0
- Fold Change of urocanic acid ([1]; platform pLC, p-Value 1): 0
- Fold Change of xanthosine(diH2O) ([1]; metabolite xanthosine(diH2O), platform pLC, p-Value 1): 0
- Fold Change of xanthosineDiH2O ([1]; metabolite xanthosineDiH2O, platform nLC, p-Value 1): 0
- Fold Change of zeatin ([1]; platform nLC, p-Value 1): 0
- Fold Change of zeatin ([1]; platform pLC, p-Value 1): 0
- Fold Change: 4-methylcatechol ([1]; nLC): 0
- Fold Change: 5hydroxyLtryptophan ([1]; nLC): 0
- Fold Change: 6-benzylaminopurine ([1]; nLC): 0
- Fold Change: abscisic acid ([1]; nLC): 0
- Fold Change: adenine ([1]; nLC): 0
- Fold Change: anthranilic acid ([1]; nLC): 0
- Fold Change: benzoic acid ([1]; nLC): 0
- Fold Change: catechol ([1]; nLC): 0
- Fold Change: cinnamic acid ([1]; nLC): 0
- Fold Change: citricanoic/itaconi ([1]; nLC): 0
- Fold Change: coumaric acid ([1]; nLC): 0
- Fold Change: cytosine ([1]; nLC): 0
- Fold Change: diaminopimelic acid ([1]; nLC): 0
- Fold Change: dihydrofolic acid ([1]; nLC): 0
- Fold Change: estrone ([1]; nLC): 0
- Fold Change: farnesol ([1]; nLC): 0
- Fold Change: folic acid ([1]; nLC): 0
- Fold Change: gibberellic ([1]; nLC): 0
- Fold Change: guanine ([1]; nLC): 0
- Fold Change: histidine ([1]; nLC): 0
- Fold Change: homogentisic/uric ([1]; nLC): 0
- Fold Change: hydrocortisone ([1]; nLC): 0
- Fold Change: indole3pyruvic acid ([1]; nLC): 0
- Fold Change: jasmonic acid ([1]; nLC): 0
- Fold Change: kinetin ([1]; nLC): 0
- Fold Change: luteolin ([1]; nLC): 0
- Fold Change: malonic acid ([1]; nLC): 0
- Fold Change: methionine ([1]; nLC): 0
- Fold Change: 4-aminobenzoic acid ([1]; pLC): 0
- Fold Change: 4-methylcatechol ([1]; pLC): 0
- Fold Change: 5hydroxyLtryptophan ([1]; pLC): 0
- Fold Change: 6benzylaminopurine ([1]; pLC): 0
- Fold Change: abscisic acid ([1]; pLC): 0
- Fold Change: adenosine ([1]; pLC): 0
- Fold Change: allantoic acid ([1]; pLC): 0
- Fold Change: anthranilic acid ([1]; pLC): 0
- Fold Change: argininosuccinate ([1]; pLC): 0
- Fold Change: biotin ([1]; pLC): 0
- Fold Change: caffeine ([1]; pLC): 0
- Fold Change: citric acid TME ([1]; pLC): 0
- Fold Change: cytidine ([1]; pLC): 0
- Fold Change: diaminopimelic acid ([1]; pLC): 0
- Fold Change: dihydrofolic acid ([1]; pLC): 0
- Fold Change: dipicolinic acid ([1]; pLC): 0
- Fold Change: folic acid ([1]; pLC): 0
- Fold Change: glucosamine ([1]; pLC): 0
- Fold Change: glucosamine6PO4 ([1]; pLC): 0
- Fold Change: histidine ([1]; pLC): 0
- Fold Change: hydrocortisone ([1]; pLC): 0
- Fold Change: itaconic acid dimes ([1]; pLC): 0
- Fold Change: kinetin ([1]; pLC): 0
- Fold Change: luteolin ([1]; pLC): 0
- # Reactions (Number Of Pathways Having at Least One Enzyme and One Compound Perturbed) [2]: 3

Structure (SMILES): CC(C)OC(=O)Nc1cccc(Cl)c1 [Chloropropham]
- herbicidal phenotype in words (Arabidopsis thaliana): neither showed a strong herbicidal phenotype

Structure (SMILES): C[C@@H]1[C@H](O)[C@@H](C)/C=C/C=C/C=C/C=C/C=C/C=C/C=C/[C@H](O[C@@H]2O[C@H](C)[C@@H](O)[C@H](N)[C@@H]2O)C[C@@H]2O[C@](O)(C[C@@H](O)C[C@@H](O)[C@H](O)CC[C@@H](O)C[C@@H](O)CC(=O)O[C@H]1C)C[C@H](O)[C@H]2C(=O)O [Amphoteracin B]
- # Reactions (Number Of Pathways Having at Least One Enzyme and One Compound Perturbed) [2]: 37
- # Pathways affected by at least one gene [3]: 97

Structure (SMILES): CCSC(=O)N(CC(C)C)CC(C)C [Butylate]
- herbicidal phenotype in words (Arabidopsis thaliana): neither showed a strong herbicidal phenotype

Structure (SMILES): Nc1nc[nH]n1 [Amitrole]
- herbicidal phenotype in words (Arabidopsis thaliana): chlorosis and not true bleaching
